Test results: publication PMC11595612, “Phytochemical Investigation and Biological Activities of Desmodium heterocarpon Extract as Anti-Tyrosinase: Isolation of Natural Compounds, In Vitro and In Silico Study” (Life, 2024)
≈ marks a conversion by molar mass, not a printed value. Where two headings read alike, the source gives them in different places.

Legend:
[1] = system: Propionibacterium acnes (DMST 14916); assay: MIC/MBC by micro-dilution method; details: Cutibacterium acnes
[2] = system: Escherichia coli ATCC35218; assay: MIC/MBC by micro-dilution method
[3] = system: Staphylococcus epidermidis (TISTR 517); assay: MIC/MBC by micro-dilution method; details: TISTR517
[4] = system: Microsporum gypseum; assay: MIC/MFC by micro-dilution method; details: for MFC / MIC: Nannizzia gypsea
[5] = system: Trichophyton rubrum; assay: MIC/MFC by micro-dilution method; details: for MFC / MIC: Trichophyton rubrum
[6] = system: Staphylococcus aureus (ATTC 25923); assay: MIC/MBC by micro-dilution method
[7] = system: Pseudomonas aeruginosa ATCC10145; assay: MIC/MBC by micro-dilution method
[8] = system: Candida albicans (TISTR 5779); assay: MIC/MFC by micro-dilution method; details: for MFC / MIC: Candida albicans, TISTR5779
[9] = system: Trichophyton mentagrophytes; assay: MIC/MFC by micro-dilution method; details: for MFC / MIC: Trichophyton mentagrophytes
[10] = system: tyrosinase; details: cited from earlier work
[11] = system: B. aureus, L. monocytogenes, and E. coli; design: method as in doi:10.17221/132/2010-CJFS; details: cited from earlier work
[12] = system: MRSA, S. epidermidis, Propionibacterium acnes, Escherichia coli, and Pseudomonas aeruginosa; assay: MIC/MBC by micro-dilution, summary over bacteria (abstract)
[13] = system: Candida albicans, Microsporum gypseum, Trichophyton rubrum, and T. mentagrophytes; assay: MIC/MFC by micro-dilution, summary over yeast and filamentous fungi (abstract); type: cell-based; details: C. albicans, M. gypseum
[14] = system: Rhizopus stolonifer and Botrytis; design: method as in doi:10.1016/S0925-5214(96)00031-2; details: at a dosage of 5 mM; cited from earlier work
[15] = molecular target: tyrosinase; details: previous study, read-out: IC50, anti-tyrosinase activity, cited from earlier work
[16] = system: A. fumigatus, A. flavus, A. niger, and tested Chrysosporium species; design: method as in earlier work; details: at 30 mg/mL; isolated from fruit extract of Flacourtia inermis Roxb; cited from earlier work
[17] = system: P. aeruginosa, Klebsiella pneumoniae, E. coli, Salmonella typhimurium, and S. aureus; details: at a concentration of 315 ± 0.04 µg/mL; cited from earlier work

Row | MIC [1] [µg/mL] | MIC [2] [µg/mL] | MIC [3] [µg/mL] | MIC [4] [µg/mL] | MIC [5] [µg/mL] | MIC ([6]; Staphylococcus aureus) [µg/mL] | MIC [7] [µg/mL] | MIC [8] [µg/mL] | MIC [9] [µg/mL] | Compound | MBC [1] [µg/mL] | MBC [2] [µg/mL] | MBC [3] [µg/mL] | MFC [4] [µg/mL] | MFC [5] [µg/mL] | MBC ([6]; Staphylococcus aureus) [µg/mL] | MBC [7] [µg/mL] | MFC [8] [µg/mL] | MFC [9] [µg/mL] | other results
1 | > 100 | > 100 | > 100 | > 100 | > 100 | > 100 | > 100 | > 100 | > 100 | CCCCCCCCCCCCCCCC(=O)O [compound 2, hexadecanoic acid] | > 100 | > 100 | > 100 | > 100 | > 100 | > 100 | > 100 | > 100 | > 100 | 
2 |  |  |  |  |  |  |  |  |  | O=C(O)c1ccccc1O [compound 3, salicylic acid] |  |  |  |  |  |  |  |  |  | type of inhibition (Lineweaver–Burk plots) [10]: non-competitive inhibitor
3 | 30 (≈ 195 µM) | 20 (≈ 130 µM) | 15 (≈ 97.3 µM) | 15 (≈ 97.3 µM) | 15 (≈ 97.3 µM) | 5 (≈ 32.4 µM) | 20 (≈ 130 µM) | 15 (≈ 97.3 µM) | 15 (≈ 97.3 µM) | O=C(O)c1cc(O)ccc1O [compound 6, 2,5-dihydroxybenzoic acid] | 40 (≈ 260 µM) | 35 (≈ 227 µM) | 15 (≈ 97.3 µM) | 15 (≈ 97.3 µM) | 15 (≈ 97.3 µM) | 5 (≈ 32.4 µM) | 35 (≈ 227 µM) | 15 (≈ 97.3 µM) | 15 (≈ 97.3 µM) | MIC [11]: 2500 µM (≈ 385 µg/mL); MBC [12]: 15 to 40 µg/mL (≈ 97.3 to 260 µM); MIC [12]: 15 to 30 µg/mL (≈ 97.3 to 195 µM); MFC [13]: 15 µg/mL (≈ 97.3 µM); MIC [13]: 15 µg/mL (≈ 97.3 µM); spore germination [14]: inhibited; MBC ([6]; S. aureus): 5 µg/mL (≈ 32.4 µM); MIC ([6]; S. aureus): 5 µg/mL (≈ 32.4 µM)
4 | > 100 | > 100 | > 100 | > 100 | > 100 | > 100 | > 100 | > 100 | > 100 | O=c1c(-c2ccc(O)cc2)coc2cc(O)cc(O)c12 [compound 1, genistein] | > 100 | > 100 | > 100 | > 100 | > 100 | > 100 | > 100 | > 100 | > 100 | IC50 ([15]; ref 40): 363 µM; IC50 ([15]; ref 41): 822 µM
5 |  |  |  |  |  |  |  |  |  | CC(=O)N1CCN(c2ccc(OCC3COC(Cn4ccnc4)(c4ccc(Cl)cc4Cl)O3)cc2)CC1 (centres unmarked) [ketoconazole, reference compound] |  |  |  |  |  |  |  |  |  | Antibiotic * (positive control value; MIC/MFC not specified) ([4]; M. gypseum): 0.25; Antibiotic * (positive control value; MIC/MFC not specified) ([5]; T. rubrum): 0.25; Antibiotic * (positive control value; MIC/MFC not specified) ([9]; T. mentagrophytes): 0.25
6 | > 100 | > 100 | > 100 | > 100 | > 100 | > 100 | > 100 | > 100 | > 100 | CC[C@H](CC[C@@H](C)[C@H]1CC[C@H]2[C@@H]3CC=C4C[C@@H](O[C@@H]5O[C@H](CO)[C@@H](O)[C@H](O)[C@H]5O)CC[C@]4(C)[C@H]3CC[C@]12C)C(C)C [compound 4, β-sitosterol-D-glucoside] | > 100 | > 100 | > 100 | > 100 | > 100 | > 100 | > 100 | > 100 | > 100 | 
7 |  |  |  |  |  |  |  |  |  | C[C@@H]1[C@H](O)[C@@H](C)/C=C/C=C/C=C/C=C/C=C/C=C/C=C/[C@H](O[C@@H]2O[C@H](C)[C@@H](O)[C@H](N)[C@@H]2O)C[C@@H]2O[C@](O)(C[C@@H](O)C[C@@H](O)[C@H](O)CC[C@@H](O)C[C@@H](O)CC(=O)O[C@H]1C)C[C@H](O)[C@H]2C(=O)O [amphotericin B, reference compound] |  |  |  |  |  |  |  |  |  | Antibiotic * (positive control value; MIC/MFC not specified) ([8]; C. albicans): 0.5
8 | 15 (≈ 97.3 µM) | 15 (≈ 97.3 µM) | 15 (≈ 97.3 µM) | 10 (≈ 64.9 µM) | 10 (≈ 64.9 µM) | 15 (≈ 97.3 µM) | 15 (≈ 97.3 µM) | 10 (≈ 64.9 µM) | 10 (≈ 64.9 µM) | O=C(O)c1cccc(O)c1O [compound 5, 2,3-dihydroxybenzoic acid] | 20 (≈ 130 µM) | 15 (≈ 97.3 µM) | 15 (≈ 97.3 µM) | 10 (≈ 64.9 µM) | 10 (≈ 64.9 µM) | 15 (≈ 97.3 µM) | 20 (≈ 130 µM) | 15 (≈ 97.3 µM) | 10 (≈ 64.9 µM) | antifungal action [16]: preventing the growth; growth of bacteria [17]: inhibited the growth
